# Read-outs that look alike come from different tables or passages of the source.
# What was measured:
# [1] = system: CACO-2 cells; assay: Assay C: Permeability in CACO-2 cells; format: in vitro ADME; conditions: pair comparison without/with 4-fluoropiperidyl
# Procedure: (§1) Caco-2 cells (1-2×10^5 cells/1 cm^2 area) are seeded on filter inserts (Costar transwell polycarbonate or PET filters, 0.4 μm pore size) and cultured (DMEM) for 10 to 25 days. Compounds are dissolved in appropriate solvent (like DMSO, 1-20 mM stock solutions). […] The transport solution (TL) is applied to the apical or basolateral donor side for measuring A-B or B-A permeability (3 filter replicates), respectively. Samples are collected at the start and end of experiment from the donor and at various time intervals for up to 2 hours also from the receiver side for concentration measurement by HPLC-MS/MS or scintillation counting. Sampled receiver volumes are replaced with fresh receiver solution.
# (§2) Efflux ratio (ER)=permeability B-A/permeability A-B
# [2] = Assay C: Permeability in CACO-2 cells; format: in vitro ADME; conditions: human; for efflux ratio: Caco-2, pH 7.2
# Procedure: as §1, §2
# [3] = system: murine hepatocytes; assay: Assay E: Stability in murine hepatocytes; format: in vitro ADME, mouse; conditions: 1 μM
# Procedure: The metabolic degradation of the test compound is assayed in a murine hepatocyte suspension.
# Murine hepatocytes (typically cryopreserved) are incubated in an appropriate buffer system (e.g. Dulbecco's modified eagle medium plus 3.5 μg glucagon/500 mL, 2.5 mg insulin/500 mL and 3.75 mg/500 mL hydrocortison) containing 5% species serum.
# Following a (typically) 30 min preincubation in an incubator (37° C., 10% CO2) 5 μl of test compound solution (80 μM; from 2 mM in DMSO stock solution diluted 1:25 with medium) are added into 395 μl hepatocyte suspension (cell density in the range 0.25-5 Mio cells/mL, typically 1 Mio cells/mL; final concentration of test compound 1 μM, final DMSO concentration 0.05%).
# The cells are incubated for six hours (incubator, orbital shaker) and samples (2 μl) are taken at 0, 0.5, 1, 2, 4 and 6 hours. Samples are transferred into acetonitrile and pelleted by centrifugation (5 min). The supernatant is transferred to a new 96-deepwell plate, evaporated under nitrogen and resuspended.
# CLint is calculated as follows CL_[…]=Dose/AUC=(C0/CD)/(AUD+clast/k)×1000/60. C0: initial concentration in the incubation [μM], CD: cell density of vital cells [10e6cells/mL], AUD: area under the data [μM×h], clast: concentration of last data point [μM], k: slope of the regression line for parent decline [h−1].
# The calculated in vitro hepatic intrinsic clearance can be scaled up to the intrinsic in vivo hepatic Clearance and used to predict hepatic in vivo blood clearance (CL) by the use of a liver model (well stirred model).
# CL_[…]_INVIVO[ml/min/kg]=(CL_[…][μL/min/10e6cells]×hepatocellularity[10e6cells/g liver]×liver factor[g/kg bodyweight])/1000
# CL[ml/min/kg]=CL_[…]_INVIVO[ml/min/kg]×hepatic blood flow[ml/min/kg]/(CL_[…]_INVIVO[ml/min/kg]+hepatic blood flow[ml/min/kg])
# Hepatocellularity,mouse:120×10e6cells/g liver
# Liver factor,mouse:55 g/kg bodyweight
# Blood flow,mouse:90 ml/(min×kg)
# [4] = system: CYP3A4 mRNA; assay: Assay D: CYP induction screening assay in primary human hepatocytes; format: in vitro ADME; conditions: 48 h
# Procedure: Cryopreserved plateable human hepatocytes (single donor, BioIVT) were thawed and plated in Collagen-I coated 96-well-plates at a cell density of 0.07 million cells per well.
# After a 6 h attachment period, the seeding medium was replaced by serum-free William's medium E supplemented with Matrigel (0.25 mg/ml) and allowed to recover overnight. 24 h post-seeding, serum-free Williams E medium containing the test compound at a final concentration of 10 μM and a final DMSO content of 0.1% and 0.1% DMSO (solvents treated control), respectively, was added to predefined wells. Exposure solutions were renewed after 24 h.
# After 48 h of treatment in total, the effect of the test compounds on CYP3A4 mRNA expression was assessed using the QuantiGene Plex Gene Expression Assay. Hepatocytes were lysed and total RNA was extracted using the QuantiGene Sample Processing Kit according to the instructions of the manufacturer.
# mRNA quantification was conducted using a customized QuantiGene Plex Panel to analyse CYP3A4 and the housekeeper genes RPL32, EIF4E2 and GUSB according to the instructions of the manufacturer and measured on a Luminex™ instrument. Signal was reported as median fluorescence intensity (MFI), which is proportional to the number of target RNA molecules present in the sample.
# For calculation of CYP3A4 mRNA induction, the signal for CYP3A4 was normalized against the geometric mean of the signal obtained for the housekeeper genes for hepatocytes exposed to test compounds in relation to solvent-treated samples according to the following equation:
# n-fold induction=(MFI CYP3A4 (treated)/Xgeo MFI (RPL32,EIF4E2,GUSB))/(MFI CYP3A4 (solvent control)/Xgeo MFI (RPL32,EIF4E2,GUSB))
# [5] = system: SIRPα signalling induced by A549 cells; assay: Assay B: SIRPα signalling assay using A549 cells; format: cell-based; conditions: Homo sapiens, read-out: Inhibition of SIRPα signalling induced by A549 cells: IC50
# Procedure: Two cell types are independently used: the Raji cell line (lymphoblast-like human cell line derived from B lymphocytes from a Burkitt's lymphoma patient in 1963) and A549 cells (adenocarcinomic human alveolar basal epithelial cells).
# Test compounds were dissolved in 100% DMSO and serially diluted into a white 384-well microtiter cell culture plate (PerkinElmer #60076780 in case of Raji assay; PDL-coated plates Greiner #781945 in case of A549 assay). 5000 Raji cells (ATCC #CC86) or 5000 A549 cells (ATCC #CCL-185) in Assay Complete Cell Plating reagent 30 (DiscoverX 93-0563R30B) were added per well. The assay plate was incubated for 48 h at 37° C., 95% humidity and 5% CO2. 15000 reporter cells (Jurkat PathHunter SIRPαV1, DiscoverX #93-1135C19) were added to each well, and the plate was incubated for 5 h at 37° C., 95% humidity and 5% CO2. Bioassay reagent 1 of the PathHunter Bioassay detection kit (DiscoverX 93-0001) was added to each well of the plate using a multichannel pipette followed by a 15 min incubation at room temperature. Afterwards bioassay reagent 2 was added followed by 60 min incubation at room temperature (incubation in the dark).
# The analysis of the data was performed using the luminescence signal generated by betagalactosidase in the PathHunter reporter cell line. The luminescence measurement was done using a Pherastar Multi-Mode Reader. Dose-response curves & IC50 data were calculated with 4-parameter sigmoidal dose response formula.
# [6] = system: SIRPα signalling induced by Raji cells; assay: Assay B: SIRPα signalling assay using Raji cells; format: cell-based; conditions: Homo sapiens, read-out: Inhibition of SIRPα signalling induced by Raji cells: IC50
# Procedure: Bioassay reagent 1 of the PathHunter Bioassay detection kit (DiscoverX 93-0001) was added to each well of the plate using a multichannel pipette followed by a 15 min incubation at room temperature. Afterwards bioassay reagent 2 was added followed by 60 min incubation at room temperature (incubation in the dark).
# The analysis of the data was performed using the luminescence signal generated by betagalactosidase in the PathHunter reporter cell line. The luminescence measurement was done using a Pherastar Multi-Mode Reader.
# [7] = pair comparison without/with 4-fluoropiperidyl, read-out: Efflux ratio (BA/AB)
SMILES,CACO2 Perm. [1],"efflux ratio [2, 7]",other results
Cn1cnnc1C1CCN(c2c(C#N)cc(F)cc2-c2cnc3nn(C(C)(C)C)c(C(F)(F)F)c3c2)CC1,17.0 10^−6 cm/sec,5.7,
Cn1cnnc1C1(F)CCN(c2c(C#N)cc(F)cc2-c2cnc3nn(C(C)(C)C)c(C(F)(F)F)c3c2)CC1,51.0 10^−6 cm/sec,0.8,
Cn1cnnc1C1CCN(c2c(C#N)cc(C(F)(F)F)nc2-c2cnc3nn(C(C)(C)C)c(Cl)c3c2)CC1,1.0 10^−6 cm/sec,36.4,
Cn1cnnc1C1(F)CCN(c2c(C#N)ccnc2-c2ccc(F)nc2)CC1 [Example 1 in EP 22188580.9],28.0 10^−6 cm/sec,,
Cn1cnnc1C1(F)CCN(c2c(C#N)cc(C(F)(F)F)nc2-c2cnc3nn(C(C)(C)C)c(Cl)c3c2)CC1 [Example 3 in EP 23189886.7],47.0 10^−6 cm/sec,1,
Cn1cnnc1C1(F)CCN(c2c(C#N)cc(C(F)(F)F)cc2-c2ccc(F)nc2)CC1 [Example 4 in EP 23161417.3],40.5 10^−6 cm/sec,,
Cn1cnnc1C1(F)CCN(c2c(C#N)cc(C(F)(F)F)nc2-c2cnc3nn(C(C)(C)C)c(C(F)(F)F)c3c2)CC1 [Example 4 in EP 23189886.7],99.5 10^−6 cm/sec,0.6,
Cn1cnnc1C1(F)CCN(c2c(C#N)cc(F)cc2-c2ccc(F)nc2)CC1 [Example 6 in EP 23161417.3],44.0 10^−6 cm/sec,,
Cn1cnnc1C1(F)CCN(c2c(-c3ccc(F)nc3)ccnc2C#N)CC1 [Example 10 in EP 22188580.9],11.0 10^−6 cm/sec,,
Cn1cnnc1C1CCN(c2c(C#N)cccc2-c2ccnnc2)CC1 [Example 11 in WO 2024/020517],0.3 10^−6 cm/sec,28.1,
Cn1cnnc1C1CCN(c2c(C#N)cc(C(F)(F)F)nc2-c2cnc3nn(C(C)(C)C)c(C(F)(F)F)c3c2)CC1 [Example 13 in EP 23189886.7],3.7 10^−6 cm/sec,5.7,
Cn1cnnc1C1CCN(c2c(C#N)cc(Cl)cc2-c2cnc3nn(C(C)(C)C)cc3c2)CC1 [Example 17 in EP 23161417.3],2.5 10^−6 cm/sec,,
Cn1cnnc1C1(F)CCN(c2c(C#N)cc(Cl)nc2-c2ccc(F)nc2)CC1 [Example 18 in EP 23161417.3],66.0 10^−6 cm/sec,1,
Cn1cnnc1C1CCN(c2c(C#N)cc(Cl)nc2-c2ccc(F)nc2)CC1 [Example 18 in WO 2024/020517],23.0 10^−6 cm/sec,3.3,
Cn1cnnc1C1(F)CCN(c2c(C#N)cc(Cl)cc2-c2cnc3nn(C(C)(C)C)cc3c2)CC1 [Example 19 in EP 23161417.3],18.0 10^−6 cm/sec,,
Cn1cnnc1C1(F)CCN(c2c(-c3cnc4nn(C(C)(C)C)cc4c3)ccc(C(F)(F)F)c2C#N)CC1 [Example 30 in EP 23161417.3],1.7 10^−6 cm/sec,,
Cn1cnnc1C1CCN(c2c(-c3cnc4nn(C(C)(C)C)cc4c3)ccc(C(F)(F)F)c2C#N)CC1 [Example 32 in EP 23161417.3],0.2 10^−6 cm/sec,,
Cn1cnnc1C1CCN(c2c(C#N)cccc2-c2cnc3nn(C(C)(C)C)cc3c2)CC1 [Example 50 in EP 22216126.7],0.5 10^−6 cm/sec,,
Cn1cnnc1C1(F)CCN(c2c(C#N)cccc2-c2ccnnc2)CC1 [Example 52 in EP 22216126.7],15.0 10^−6 cm/sec,,
Cn1cnnc1C1(F)CCN(c2c(C#N)cccc2-c2ccc(F)nc2)CC1 [Example 56 in EP 23161417.3],50.0 10^−6 cm/sec,,
Cn1cnnc1C1(F)CCN(c2c(C#N)cccc2-c2cnc3nn(C(C)(C)C)cc3c2)CC1 [Example 62 in EP 22216126.7],4.9 10^−6 cm/sec,,
Cn1cnnc1C1CCN(c2c(C#N)cc(C(F)(F)F)cc2-c2ccc(F)nc2)CC1 [Example 70 in WO 2024/020517],9.0 10^−6 cm/sec,,
Cn1cnnc1C1CCN(c2c(C#N)cc(F)cc2-c2ccc(F)nc2)CC1 [Example 130 in WO 2024/020517],24.0 10^−6 cm/sec,,
Cn1cnnc1C1CCN(c2c(-c3ccc(F)nc3)ccnc2C#N)CC1 [Example 132 in WO 2024/020517],1.8 10^−6 cm/sec,,
Cn1cnnc1C1CCN(c2c(C#N)ccnc2-c2ccc(F)nc2)CC1 [Example 133 in WO 2024/020517],4.8 10^−6 cm/sec,,
"Cn1cncc1C1CCN(c2c(C#N)cccc2-c2ccc(F)nc2)CC1 [QP5038, reference compound]",,,"Mouse Hepatocyte Stability QH [3]: 97%; n-fold induction of CYP3A4 at 10 μM [4]: 58.5 n-fold; IC50 [5]: 6 nM; efflux ratio ([2]; Assay C, permeability B-A/permeability A-B, read-out: Efflux Ratio): 0.8; Papp A→B ([2]; pH 7.2, Assay C, CACO-2 cells): 61 ×10⁻⁶ cm/s; IC50 [6]: 21 nM"
